Experiments:
Conditions in all cases: MRS medium, 37° C.; A50, K50, S50 50, C34 34, T15 15, G20 20, R25 25 microgram/ml
[1] = tested on: BBA (Bifidobacterium adolescentis); experiment: Antibiotic susceptibility of lactic acid bacteria strains; assay type: cell-based; further: key: +++: being normally grown without the effect of antibiotic; −: being not grown caused by the effect of antibiotic
Experimental: (§1) In order to determine the antibiotic resistance of the lactic acid bacteria strains reproducing abundant lactic acids, i.e., Lactobacillus acidophilus (KCTC No. 3164), Bifidobacterium longum sub sp. longum (KCTC No. 3128) etc, the bacteria was inoculated into MRS medium (10 g of Protease peptone, 10 g of beef extract, 5 g of yeast extract, 20 g of D-glucose, 1 ml of Tween 80, 2 g of K2HPO4, 5 g of sodium acetate, 2 g of diammonium hydrogencitrate, 0.2 g of MgSO47H20, 0.2 g of MnSO4H20, 1 L of distilled water, pH 6.2-6.5) and performed to shaking incubation at 37° C. at the speed of 150 rpm.

[2] = tested on: BBC (Bacillus cereus); experiment: as above; assay type: cell-based
Experimental: as §1

[3] = tested on: BBC2 (Bifidobacterium catenulatum); experiment: as above; assay type: cell-based; further: key: +++: being normally grown without the effect of antibiotic; −: being not grown caused by the effect of antibiotic
Experimental: as §1

[4] = tested on: BBL (Bifidobacterium longum subsp. Longum); experiment: as above; assay type: cell-based; further: key: +++: being normally grown without the effect of antibiotic; −: being not grown caused by the effect of antibiotic
Experimental: as §1

[5] = tested on: BLA (Lactobacillus acidophilus); experiment: as above; assay type: cell-based
Experimental: as §1

[6] = tested on: BLB (Lactobacillus brevis); experiment: as above; assay type: cell-based
Experimental: as §1

[7] = tested on: BLC (Lactobacillus casei); experiment: as above; assay type: cell-based
Experimental: as §1

[8] = tested on: BLD (Lactobacillus delbrueckii subsp. bulgaricus); experiment: as above; assay type: cell-based
Experimental: as §1

[9] = tested on: BSS (Streptococcus sp); experiment: as above; assay type: cell-based
Experimental: as §1

[10] = tested on: BBB1 (Bifidobacterium bifidum); parameters: key to the marks not given beside the values
[11] = tested on: BBB2 (Bifidobacterium breve); parameters: key to the marks not given beside the values
Wherever Antibiotic susceptibility (growth of BBC with antibiotic) is given: key: +++: being normally grown without the effect of antibiotic; −: being not grown caused by the effect of antibiotic.

CO[C@H]1/C=C/O[C@@]2(C)Oc3c(C)c(O)c4c(O)c(c(/C=N/N5CCN(C)CC5)c(O)c4c3C2=O)NC(=O)/C(C)=C\C=C\[C@H](C)[C@H](O)[C@@H](C)[C@@H](O)[C@@H](C)[C@H](OC(C)=O)[C@@H]1C [Ripampicin, rifampicin]
Antibiotic susceptibility (growth of BBA with antibiotic) [1]: −
Antibiotic susceptibility (growth of BBC with antibiotic) [2]: −
Antibiotic susceptibility (growth of BBC2 with antibiotic) [3]: −
Antibiotic susceptibility (growth of BBL with antibiotic) [4]: −
Antibiotic susceptibility (growth of BLA with antibiotic) [5]: −
Antibiotic susceptibility (growth of BLB with antibiotic) [6]: −
Antibiotic susceptibility (growth of BLC with antibiotic) [7]: −
Antibiotic susceptibility (growth of BLD with antibiotic) [8]: −
Antibiotic susceptibility (growth of BSS with antibiotic) [9]: −

CC1(C)S[C@@H]2[C@H](NC(=O)[C@H](N)c3ccccc3)C(=O)N2[C@H]1C(=O)O [Ampicillin, ampicillin]
Antibiotic susceptibility (growth of BBA with antibiotic) [1]: −
Antibiotic susceptibility (growth of BBC with antibiotic) [2]: −
Antibiotic susceptibility (growth of BBC2 with antibiotic) [3]: −
Antibiotic susceptibility (growth of BBL with antibiotic) [4]: −
Antibiotic susceptibility (growth of BLB with antibiotic) [6]: −
Antibiotic susceptibility (growth of BLC with antibiotic) [7]: −
Antibiotic susceptibility (growth of BLD with antibiotic) [8]: −
Antibiotic susceptibility (growth of BSS with antibiotic) [9]: −

CN(C)[C@@H]1C(=O)C(C(N)=O)=C(O)[C@@]2(O)C(=O)C3=C(O)c4c(O)cccc4[C@@](C)(O)[C@H]3C[C@@H]12 [Tetracyclin, tetracycline]
Antibiotic susceptibility (growth of BBA with antibiotic) [1]: −
Antibiotic susceptibility (growth of BBC with antibiotic) [2]: −
Antibiotic susceptibility (growth of BBC2 with antibiotic) [3]: −
Antibiotic susceptibility (growth of BBL with antibiotic) [4]: −
Antibiotic susceptibility (growth of BLA with antibiotic) [5]: −
Antibiotic susceptibility (growth of BLB with antibiotic) [6]: −
Antibiotic susceptibility (growth of BLC with antibiotic) [7]: −
Antibiotic susceptibility (growth of BLD with antibiotic) [8]: −
Antibiotic susceptibility (growth of BSS with antibiotic) [9]: −

gentamycin
Antibiotic susceptibility (growth of BBA with antibiotic) [1]: +++
Antibiotic susceptibility (growth of BBC with antibiotic) [2]: +++
Antibiotic susceptibility (growth of BBC2 with antibiotic) [3]: +++
Antibiotic susceptibility (growth of BBL with antibiotic) [4]: +++
Antibiotic susceptibility (growth of BLA with antibiotic) [5]: −
Antibiotic susceptibility (growth of BLB with antibiotic) [6]: −
Antibiotic susceptibility (growth of BLC with antibiotic) [7]: −
Antibiotic susceptibility (growth of BLD with antibiotic) [8]: −

O=C(N[C@H](CO)[C@H](O)c1ccc([N+](=O)[O-])cc1)C(Cl)Cl [Chloramphenicol, chloramphenicol]
Antibiotic susceptibility (growth of BBA with antibiotic) [1]: −
Antibiotic susceptibility (growth of BBC with antibiotic) [2]: −
Antibiotic susceptibility (growth of BBC2 with antibiotic) [3]: −
Antibiotic susceptibility (growth of BBL with antibiotic) [4]: −
Antibiotic susceptibility (growth of BLA with antibiotic) [5]: −
Antibiotic susceptibility (growth of BLB with antibiotic) [6]: −
Antibiotic susceptibility (growth of BLC with antibiotic) [7]: −
Antibiotic susceptibility (growth of BLD with antibiotic) [8]: −
Antibiotic susceptibility (growth of BSS with antibiotic) [9]: −

NC[C@H]1O[C@H](O[C@H]2[C@H](O)[C@@H](O[C@H]3O[C@H](CO)[C@@H](O)[C@H](N)[C@H]3O)[C@H](N)C[C@@H]2N)[C@H](O)[C@@H](O)[C@@H]1O [Kanamycin, kanamycin]
Antibiotic susceptibility (growth of BBL with antibiotic) [4]: +++
Antibiotic susceptibility (growth of BLA with antibiotic) [5]: +++
Antibiotic susceptibility (growth of BLB with antibiotic) [6]: +++
Antibiotic susceptibility (growth of BLC with antibiotic) [7]: +++
Antibiotic susceptibility (growth of BLD with antibiotic) [8]: +++
Antibiotic susceptibility (growth of BSS with antibiotic) [9]: +++
Antibiotic susceptibility (growth of BBB1 with antibiotic) [10]: +++
Antibiotic susceptibility (growth of BBB2 with antibiotic) [11]: +++

[H]/N=C(/N)N[C@H]1[C@H](O)[C@@H](O)[C@H](O[C@@H]2O[C@@H](C)[C@](O)(C=O)[C@H]2O[C@@H]2O[C@@H](CO)[C@H](O)[C@@H](O)[C@@H]2NC)[C@@H](N/C(N)=N\[H])[C@@H]1O [Streptomycin]
Antibiotic susceptibility (growth of BBL with antibiotic) [4]: +++
Antibiotic susceptibility (growth of BLA with antibiotic) [5]: −
Antibiotic susceptibility (growth of BLB with antibiotic) [6]: −
Antibiotic susceptibility (growth of BLC with antibiotic) [7]: −
Antibiotic susceptibility (growth of BLD with antibiotic) [8]: −
Antibiotic susceptibility (growth of BBB2 with antibiotic) [11]: +++
